Results taken from PubChem BioAssay (NCI).
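Where inhibition never reached the appropriate level, the endpoint shown equals the highest concentration tested. Otherwise, values were interpolated linearly from a five-concentration, 48-hour dose response in 96-well plates. Here, GI50 denotes the concentration required for 50% inhibition of growth. At the TGI there is no net growth.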

What was measured:
Assay in all cases: DTP human tumour cell line panel, 48 h
[1] = tested on: A549 NSCLC
[2] = tested on: T-47D breast
[3] = tested on: EKVX NSCLC
[4] = tested on: ACHN renal
[5] = tested on: M14 melanoma
[6] = tested on: NCI-H522 lung
[7] = tested on: MDA-MB-435
[8] = tested on: KM12 colon
[9] = tested on: NCI/ADR-RES ovarian
[10] = tested on: PC-3 prostate
[11] = tested on: OVCAR-4 ovarian
[12] = tested on: SNB-75 CNS
[13] = tested on: COLO 205 colon

Row | SMILES | TGI [1] | TGI [2] | TGI [3] | TGI [4] | TGI [5] | TGI [6] | TGI [7] | TGI [8] | TGI [9] | TGI [10] | TGI [11] | TGI [12] | TGI [13] | GI50 [1] | GI50 [4] | GI50 [6] | GI50 [7] | GI50 [8] | GI50 [11]
1 | CSC1(C)C(=O)Nc2c(OCc3ccccc3)cc([N+](=O)[O-])cc21 (stereo unspecified) | > 100 µM | > 100 µM | > 100 µM | > 100 µM | > 100 µM | > 100 µM | > 100 µM | > 100 µM | > 100 µM | > 100 µM | > 100 µM | 35.7 µM | > 100 µM | – | – | – | – | – | –
2 | COc1cc(C)c(/C=C2/N=C(c3ccccc3)OC2=O)c([N+](=O)[O-])c1OC | > 100 µM | > 100 µM | > 100 µM | > 100 µM | > 100 µM | > 100 µM | > 100 µM | > 100 µM | > 100 µM | > 100 µM | > 100 µM | > 100 µM | > 100 µM | – | – | – | – | – | –
3 | COc1cc2c(c(OC)c1OC)C(=O)[C@@H]1[C@H]2N1C(=O)NCCCl | > 100 µM | > 100 µM | > 100 µM | > 100 µM | > 100 µM | > 100 µM | > 100 µM | > 100 µM | > 100 µM | > 100 µM | > 100 µM | > 100 µM | 78.3 µM | – | – | – | – | – | –
4 | COc1ccc(/C=C/C(=O)/C=C/c2ccc(OC)cc2OC)c(OC)c1 | 46.3 µM | > 100 µM | 33.3 µM | 21.8 µM | 36.2 µM | 8.7 µM | 8.24 µM | > 100 µM | 91.4 µM | 44.2 µM | 46.3 µM | 45.1 µM | 51.9 µM | – | – | – | – | – | –
5 | CN(C)c1ccc(/C=C/c2ccc(S(N)(=O)=O)cc2)cc1 | 26.2 µM | 80.4 µM | 52.5 µM | 33.6 µM | 35.9 µM | 25.6 µM | 23.7 µM | > 100 µM | 40 µM | 34.8 µM | 10.1 µM | 62.6 µM | 99.2 µM | 10.1 µM | 13.6 µM | 6.88 µM | 7.63 µM | 8.28 µM | 3.35 µM
6 | CC(O)C1(CNc2cc(Cl)nc(N)n2)CCCCC1 (stereo unspecified) | > 100 µM | > 100 µM | > 100 µM | > 100 µM | > 100 µM | > 100 µM | > 100 µM | > 100 µM | > 100 µM | > 100 µM | > 100 µM | > 100 µM | > 100 µM | – | – | – | – | – | –
7 | CCOC(=O)/C=C(\C(=O)OCC)n1ccc(=O)n(Cc2cnnn2CCCCOC(C)=O)c1=O | 40.2 µM | 17.4 µM | 24.8 µM | 5.52 µM | 38.8 µM | 3.05 µM | 22.9 µM | 30.5 µM | 40.1 µM | 30.8 µM | 30.2 µM | 31.5 µM | 5.8 µM | – | – | – | – | – | –
8 | COc1cc(CSc2ccc(O)cc2)cc(OC)c1OC | > 100 µM | 55.5 µM | > 100 µM | > 100 µM | > 100 µM | > 100 µM | > 100 µM | > 100 µM | 83.6 µM | > 100 µM | – | 86.2 µM | > 100 µM | – | – | – | – | – | –
9 | S=C(NCCc1ccccn1)N/N=C/c1ccccn1 | 7.68 µM | > 100 µM | > 27.7 µM | 4.82 µM | 3.39 µM | 1.57 µM | > 100 µM | > 100 µM | > 100 µM | > 100 µM | > 74.7 µM | > 100 µM | 0.452 µM | – | – | – | – | – | –
10 | Clc1cc2nn(C3CCCCO3)nc2cc1Cl (stereo unspecified) | > 100 µM | > 100 µM | > 100 µM | > 100 µM | > 100 µM | > 100 µM | > 100 µM | > 100 µM | > 100 µM | > 100 µM | > 100 µM | > 100 µM | > 100 µM | – | – | – | – | – | –
11 | CC1(C)[C@@H]2C[C@H]1[C@@H](Cc1cccc(C[C@H]3c4cc(-c5ccccn5)ncc4[C@H]4C[C@@H]3C4(C)C)c1)c1cc(-c3ccccn3)ncc12 | > 100 µM | > 49.3 µM | > 60 µM | > 66.6 µM | > 100 µM | > 70.8 µM | > 100 µM | > 100 µM | 40.3 µM | > 100 µM | > 100 µM | > 100 µM | > 65.5 µM | – | – | – | – | – | –
12 | CCOC(=O)NN(C(=O)OCC)C(C(=O)C1=CCCCC1)N(NC(=O)OCC)C(=O)OCC | > 100 µM | > 100 µM | > 100 µM | > 100 µM | > 100 µM | > 100 µM | > 100 µM | > 100 µM | > 100 µM | > 100 µM | > 100 µM | > 100 µM | > 100 µM | – | – | – | – | – | –
13 | COC(=O)c1c(C(=O)OC)c2ccccn2c1-c1cc(OC)c(Br)c(=O)o1 | > 100 µM | > 100 µM | > 100 µM | > 100 µM | > 100 µM | > 100 µM | > 100 µM | > 100 µM | > 100 µM | > 100 µM | > 100 µM | 66.3 µM | > 100 µM | – | – | – | – | – | –
14 | CCCCCCCCCCCC(=O)OC[C@H](C[As](=O)(O)O)OC(=O)CCCCCCCCCCC | 20.5 µM | 47.2 µM | 25.6 µM | 9.07 µM | 10.5 µM | 5.09 µM | 9.5 µM | 22 µM | 29.3 µM | 10.5 µM | 37.7 µM | 24.7 µM | 38.8 µM | – | – | – | – | – | –
15 | COC(=O)C1CCN(C(=O)OC(C)(C)C)CC1 | > 100 µM | > 100 µM | > 100 µM | > 100 µM | > 100 µM | > 100 µM | > 100 µM | > 100 µM | > 100 µM | > 100 µM | > 100 µM | > 100 µM | > 100 µM | – | – | – | – | – | –
16 | COC(=O)C1CCC(=S)N1C(=O)OCc1ccccc1 (stereo unspecified) | > 100 µM | > 100 µM | > 100 µM | > 100 µM | > 100 µM | > 100 µM | > 100 µM | > 100 µM | > 100 µM | > 100 µM | > 100 µM | > 100 µM | > 100 µM | – | – | – | – | – | –
17 | Cc1cc(Cl)nc2nc(Cl)c(N)cc12 | 37.2 µM | 15.4 µM | 10.5 µM | 18.4 µM | 25.6 µM | 12 µM | 4.64 µM | 17.8 µM | 58.2 µM | 30.4 µM | 8.91 µM | 30 µM | 4.3 µM | – | – | – | – | – | –
